Reference: patent US7981876B2, “Polymorphic and amorphous salt forms of squalamine dilactate” (priority 2005, dated 2011)

Key:
[1] = Accelerated stability study (temperature-based, four weeks) of four salt forms, reversed-phase HPLC of o-phthaldialdehyde derivatized samples; type: physicochemical
Experimental: An accelerated stability study (temperature-based) lasting four weeks was performed on squalamine in four different salt forms. The four salt forms were: dihydrochloride, diacetate, dilactate and D-digluconate. The samples were subjected to temperatures of 40° C., 60° C. and 80° C. The following table summarizes the results of % purity of main peak, squalamine, based on total integrated area. The analysis was performed using reversed-phase HPLC of o-phthaldialdehyde derivatized samples.

tails of CD-1®BR mice = assay: Local irritancy of 5-day repeated intravenous injections of squalamine salt forms in mice; type: in vivo
Source text: A Study of Local Irritancy of 5-Day Repeated Intravenous Injections of Different Salt Forms (Ditrifluoroacetate, Dilactate, Digluconate, Diacetate) of MSI-1256 (Squalamine) in Mice
Objective: To determine the local irritancy of 5-day repeated daily intravenous doses of squalamine salt forms in tails of CD-1®BR mice.
Material and Methods: (Animals): Forty-eight male CD-1®BR mice (Charles River Lab). Mean body weight at study initiation was 20.6 gm. (Housing Environment): Mice were housed as groups (maximum 10 mice/box) in plastic mouse boxes with hardwood chip bedding and wire lids. They had access to food (Purina Mouse Chow) and water in bottles ad lib. The boxes were housed in isolator racks that were supplied with one-pass through filtered room air. The room in which the animals were housed was on a 12-hour on/12-hour off light cycle and had controlled temperature (range: 67-76° F.) and humidity (range: 40-70% relative humidity).
Solution prep: A 0.36 mg/mL solution of squalamine ditrifluoroacetate salt (equivalent to 0.25 mg/mL squalamine ditrifluroacetate active moiety) was prepared in D5W. A 0.31 mg/mL solution of squalamine diacetate salt (equivalent to 0.25 mg/mL squalamine diacetate active moiety) was prepared in D5W. A 0.33 mg/mL solution of squalamine dilactate salt (equivalent to 0.25 mg/mL squalamine dilactate active moiety) was prepared in D5W. A 0.45 mg/mL solution of squalamine digluconate salt (equivalent to 0.25 mg/mL squalamine digluconate active moiety) was prepared in D5W. A 1.0 mg/mL solution of magainin-2-amide (positive control) was prepared in D5W. Protocol: Mice were randomly assigned to six groups (8 mice/group) and received daily intravenous (i.v.) injections of solutions of D5W or squalamine salts in the tail vein for five days (study days 0, 1, 2, 3, and 4). […] One group of eight mice received test article magainin-2-amide (10 mg/kg/day; 10 mL/kg/day of a 1 mg/mL solution), which was previously determined to be local vein irritant, as a positive control. Mice were not injected with test article if severity of bruising or swelling (edema) warranted the omission of the injection. Survival was monitored and clinical signs were observed daily for five days of administration of squalamine salts and four days after the last dose (Study Day 8). Clinical signs of irritancy, edema, and bruising were made on days 1, 2, 3, and 4 approximately 24-hours after each injection and immediately prior to that day's injection. The pHs of the solutions of all test articles except magainin-2-amide were checked on Study Day 3. (The same solutions were used throughout the study so a similar pH on all study days may be assumed).

[2] = Heat stress stability at 70° C. for three days, HPLC with ELSD detection; type: physicochemical
Experimental: Samples of amorphous squalamine dilactate and squalamine dilactate recrystallized from ethanol as described in Example 5 were placed in scintillation vials and heated in an oven at 70° C. for three days. A portion of each heat stressed sample was then analyzed by HPLC with ELSD detection and the results compared with the HPLC analysis of unstressed material.

[3] = Heat Stressed, 70° C. for three days

| Compound | % purity of main peak, squalamine, based on total integrated area ([1]; 4w 40° C.) [%] | % purity of main peak, squalamine, based on total integrated area ([1]; 4w 60° C.) [%] | % purity of main peak, squalamine, based on total integrated area ([1]; 4w 80° C.) [%] | % purity of main peak, squalamine, based on total integrated area ([1]; T = 0) [%] | necrotic mouse tail (mice affected/group) (tails of CD-1®BR mice; mouse, in vivo) | also measured |
| --- | --- | --- | --- | --- | --- | --- |
| squalamine digluconate | 72.6 | 60.7 | 4.9 | 87.8 |  | tolerance of treatment (swelling, bruising, irritation of tails) (tails of CD-1®BR mice; 2.5 mg/kg/day i.v. tail vein for five days, 0.25 mg/mL solutions in D5W, compared with squalamine diacetate and ditrifluoroacetate): tolerated slightly better |
| squalamine ditrifluoroacetate |  |  |  |  | 1/8 | mouse tail fell off (mice affected/group) (tails of CD-1®BR mice; mouse, in vivo): 1/8 |
| squalamine dilactate | 80.9 | 80.6 | 70.9 | 91.8 |  | stability under increasingly severe conditions ([1]; four weeks at 40-80° C., compared to the diacetate and digluconate salts): surprisingly stable |
| squalamine diacetate | 87.3 | 81.5 | 62.9 | 94.4 | 1/8 |  |
| CC(C)[C@@H](CC[C@@H](C)[C@H]1CC[C@H]2[C@@H]3[C@H](O)C[C@H]4C[C@@H](NCCCNCCCCN)CC[C@]4(C)[C@H]3CC[C@]12C)OS(=O)(=O)O.C[C@H](O)C(=O)O.C[C@H](O)C(=O)O [Crystallized Squalamine] |  |  |  |  |  | change in the percentage of the lactylamide impurity when heat stressed ([2]; 70° C. for three days vs unstressed): no significant increase; 24 S Isomer [2, 3]: 0.714%; Lacrylamide [2, 3]: 0.087%; Squalamine [2, 3]: 99.168%; 24 S Isomer ([2]; Unstressed): 0.715%; Lacrylamide ([2]; Unstressed): 0.070%; Squalamine ([2]; Unstressed): 99.187% |
